Values joined by “and” are separate entries in the source; they are usually repeats but may differ in a detail not shown here. Equal entries are not always repeated. Where two headings read alike, the source gives them in different places. Starred links: 1 amine or outer side, 2 acyl side, 3 side chain; linkers in the order of their positions; H or OH if unused. Positions of bridges follow the written chain, without caps; N, C: chain ends. Non-standard residues stand in square brackets, D forms with d. Residues, ends and D or L forms follow the SMILES beside them. *: point of attachment. Orn(4R-OH,5R-OCH2CH2NMe3+) = C[N+](C)(C)CCO[C@@H](N[*:3])[C@H](O)C[C@H](N[*:1])C(=O)[*:2]; pTerphenylCO(4''-OnC5H11) = CCCCCOc1ccc(-c2ccc(-c3ccc(C(=O)*)cc3)cc2)cc1; hTyr(3S-OH,4S-OH) = N[C@H](C(=O)O)[C@H](O)[C@@H](O)c1ccc(O)cc1; Pro(3S-OH,4S-Me) = C[C@H]1CN[C@H](C(=O)O)[C@H]1O; Hyp = O=C(O)[C@@H]1C[C@@H](O)CN1
How the values were obtained:
[1] = tested on: C. glabrata; test: Mutant prevention concentration (MPC) determination; format: cell-based, Candida glabrata; details: wild-type isolates; 24 hr, ~1×10^7 CFU/mL
[2] = tested on: C. glabrata ATCC 90030, ATCC 2001; format: cell-based, Candida glabrata; details: for Freq. (replicate mutation frequency): replicate plates 1-3, listed as CMP1; for Plate concentration: SDA, minimum concentration to cleanly inhibit growth
Experimental: Spontaneous mutant selection. […] Three individual colonies from each strain were used to start cultures in RPMI. […] One milliliter aliquots were spread onto SDA plates containing drug with sterile glass beads. Starting viable count was enumerated by triplicate plating of serial dilutions of the starting inoculum. […] Glycerol stocks of putative mutant colonies were stored at −80° C. […] Spontaneous mutation frequencies were calculated by dividing the number of resistant colonies on a given plate by the starting inoculum plated. A subset of mutants (weighted heavily towards those selected with CMP1) were then evaluated by MIC and sequencing of FKS gene hot spot regions.

[3] = tested on: C. albicans NRRL Y-477; test: microbe, parasite or virus in culture; format: cell-based, Candida albicans; details: Candida albicans
[4] = tested on: C. glabrata ATCC 90030, ATCC 2001; test: microbe, parasite or virus in culture; format: cell-based, Candida glabrata; details: Nakaseomyces glabratus
[5] = tested on: C. parapsilosis CP02; test: microbe, parasite or virus in culture; format: cell-based, Candida parapsilosis; details: Lodderomyces parapsilosis
[6] = tested on: C. parapsilosis vaginal isolates; test: Susceptibility testing of VVC clinical isolates at pH 7 and 4 (CLSI M27-A3); format: cell-based, Candida parapsilosis
[7] = tested on: C. tropicalis vaginal isolates; test: as above; format: cell-based; details: Candida tropicalis
[8] = tested on: Candida parapsilosis; test: Broth microdilution of invasive fungal isolates (CLSI M27-A3/M38-A2); format: cell-based; details: 92 isolates
[9] = tested on: Candida tropicalis; test: as above; format: cell-based
[10] = tested on: Candida krusei; test: as above; format: cell-based; details: 16 isolates
[11] = tested on: Cryptococcus neoformans var. grubii; test: as above; format: cell-based; details: 19 isolates
[12] = tested on: azole-resistant C. albicans (R357); test: Immunosuppressed rat model of vulvovaginal candidiasis, vaginal CFU; format: in vivo, Candida albicans; details: once daily for 3 days, intravaginal 0.1 mL/rat (Compound 1 as 3% gel)
[13] = tested on: C. krusei ATCC 6258, ATCC 14243; test: Time-kill assay in vagina-simulative medium pH 4.0 (Table 20); format: cell-based, Candida krusei; details: two C. krusei strains; all concentrations (2-128 μg/mL)
[14] = tested on: azole-resistant Candida albicans (R357); test: Disseminated infection model in neutropenic ICR mice, kidney fungal counts (Example 10, Tables 22-23); format: in vivo
[15] = tested on: 1,3-β-D-glucan synthase from C. glabrata; test: Glucan synthase (GS) inhibition assay
[16] = tested on: C. albicans ATCC 90028 and DPL22; test: MIC of strains used in mouse study (Table 3); details: Candida albicans
[17] = tested on: C. albicans NRRL Y-477; test: Broth microdilution MIC (CLSI), Examples 3 and 4; details: Candida albicans
Experimental: Antifungal susceptibility testing. […] MIC assays were performed in triplicate.

[18] = tested on: C. albicans; test: Antifungal susceptibility testing (CLSI M27-S4), WT and echinocandin-resistant isolates; details: for MIC median (range): 24 hr
Experimental: (§1) Antifungal susceptibility testing. Antifungal susceptibility testing was performed in triplicate for a collection of 95 Candida strains (20 C. albicans, 20 C. glabrata, 2 C. dubliniensis, 15 C. krusei, 19 C. parapsilosis, and 19 C. tropicalis) that included 30 isolates showing an echinocandin resistance (ER) phenotype (caspofungin-resistant) in accordance with the guidelines described in the Clinical and Laboratory Standards Institute (CLSI) document M27-S4. […] Stock solutions of the drugs were kept at −86° C.

[19] = tested on: C. dubliniensis; test: as above; details: 24 hr
Experimental: as §1

CCCCCOc1ccc(-c2ccc(-c3ccc(C(=O)N[C@H]4C[C@@H](O)[C@@H](OCC[N+](C)(C)C)NC(=O)[C@@H]5[C@@H](O)[C@@H](C)CN5C(=O)[C@H]([C@@H](C)O)NC(=O)[C@H]([C@H](O)[C@@H](O)c5ccc(O)cc5)NC(=O)[C@@H]5C[C@@H](O)CN5C(=O)[C@H]([C@@H](C)O)NC4=O)cc3)cc2)cc1 [Compound 1] ({pTerphenylCO(4''-OnC5H11)}-[Orn(4R-OH,5R-OCH2CH2NMe3+)]T[Hyp][hTyr(3S-OH,4S-OH)]T[Pro(3S-OH,4S-Me)]; lactam 1-C)
MPC [1]: 16 µg/mL | Median mutation frequency ([2]; ATCC 2001): 3.16E−08 | Freq. (replicate mutation frequency) ([2]; ATCC 2001): 3.16E−08 and 3.79E−08 and 1.17E−08 | Median mutation frequency ([2]; ATCC 90030): 1.35E−08 | Freq. (replicate mutation frequency) ([2]; ATCC 90030): 3.52E−08 and 1.26E−08 and 1.35E−08 | Plate concentration ([2]; ATCC 2001): 0.25 µg/mL | Plate concentration ([2]; ATCC 90030): 0.25 µg/mL | MIC ([3]; NRRLY477, 48 h, NRRL Y-477 P20-1, selecting drug ANID, Fks1 HS1 S645Y, 48 h read): 2 µg/mL | MIC ([3]; NRRLY477, 48 h, NRRL Y-477 P20-1, selecting drug CMP1, 48 h read): 0.25 µg/mL | MIC ([3]; NRRLY477, NRRL Y-477 P20-1, selecting drug CAS): 0.03 µg/mL | MIC ([3]; NRRLY477, read-out: MIC P20, NRRL Y-477, total population after 20 passages with the selecting drug, MIC of selecting drug): 0.25 µg/mL | MIC ([4]; 48 h, ATCC 90030 P20-1, selecting drug ANID, Fks2 HS1 D666I, 48 h read): 2 µg/mL | MIC ([4]; ATCC 2001 P20-2, selecting drug CAS): 2 µg/mL | MIC ([4]; ATCC 2001 P20-2, selecting drug CMP1): 1 µg/mL | MIC ([4]; ATCC 90030 P20-2, selecting drug CMP1): 1 µg/mL | MIC ([4]; read-out: MIC P20, ATCC 2001, total population after 20 passages with the selecting drug, MIC of selecting drug): 1 µg/mL | MIC ([4]; read-out: MIC P20, ATCC 90030, total population after 20 passages with the selecting drug, MIC of selecting drug): 1 µg/mL | MIC ([5]; CP02, CP02 P20-1, selecting drug ANID): 4 µg/mL | MIC ([5]; CP02, CP02 P20-1, selecting drug CMP1): 4 µg/mL | MIC ([5]; CP02, read-out: MIC P20, CP02, total population after 20 passages with the selecting drug, MIC of selecting drug): 4 µg/mL | MIC90 ([6]; 24 h, pH 4): 2 µg/mL | MIC90 ([6]; 24 h, pH 7): 2 µg/mL | MIC90 ([6]; 48 h, pH 4): 2 µg/mL | MIC90 ([6]; 48 h, pH 7): 4 µg/mL | MIC90 ([7]; 24 h, pH 4): 0.5 µg/mL | MIC90 ([7]; 24 h, pH 7): 0.125 µg/mL | MIC90 ([7]; 48 h, pH 4): 2 µg/mL | MIC90 ([7]; 48 h, pH 7): 0.125 µg/mL | Cumulative % of isolates inhibited at MIC 0.5 μg/mL [8]: (23.9) % | Cumulative % of isolates inhibited at MIC 1 μg/mL [8]: (62.0) % | Cumulative % of isolates inhibited at MIC 2 μg/mL [8]: (98.9) % | Cumulative % of isolates inhibited at MIC 4 μg/mL [8]: (100.0) % | Number of isolates inhibited at MIC 0.5 μg/mL [8]: 22 | Number of isolates inhibited at MIC 1 μg/mL [8]: 35 | Number of isolates inhibited at MIC 2 μg/mL [8]: 34 | Number of isolates inhibited at MIC 4 μg/mL [8]: 1 | MIC50 ([8]; Lodderomyces parapsilosis, read-out: MIC50): 1 µg/mL | MIC90 ([8]; Lodderomyces parapsilosis, read-out: MIC90): 2 µg/mL | Cumulative % of isolates inhibited at MIC 0.015 μg/mL ([9]; 51 isolates): (56.9) % | Cumulative % of isolates inhibited at MIC 0.03 μg/mL ([9]; 51 isolates): (88.2) % | Cumulative % of isolates inhibited at MIC 0.06 μg/mL ([9]; 51 isolates): (100.0) % | Cumulative % of isolates inhibited at MIC ≤0.008 μg/mL ([9]; 51 isolates): (3.9) % | Number of isolates inhibited at MIC 0.015 μg/mL ([9]; 51 isolates): 27 | Number of isolates inhibited at MIC 0.03 μg/mL ([9]; 51 isolates): 16 | Number of isolates inhibited at MIC 0.06 μg/mL ([9]; 51 isolates): 6 | Number of isolates inhibited at MIC ≤0.008 μg/mL ([9]; 51 isolates): 2 | MIC50 ([9]; Candida tropicalis, 51 isolates, read-out: MIC50): 0.015 µg/mL | MIC90 ([9]; Candida tropicalis, 51 isolates, read-out: MIC90): 0.06 µg/mL | concentration at which all isolates were inhibited ([9]; n=51): ≤ 0.06 µg/mL | Cumulative % of isolates inhibited at MIC 0.015 μg/mL [10]: (18.8) % | Cumulative % of isolates inhibited at MIC 0.03 μg/mL [10]: (87.5) % | Cumulative % of isolates inhibited at MIC 0.06 μg/mL [10]: (100.0) % | Number of isolates inhibited at MIC 0.015 μg/mL [10]: 3 | Number of isolates inhibited at MIC 0.03 μg/mL [10]: 11 | Number of isolates inhibited at MIC 0.06 μg/mL [10]: 2 | concentration at which all isolates were inhibited [10]: ≤ 0.06 µg/mL | MIC50 ([10]; Pichia kudriavzevii, read-out: MIC50): 0.03 µg/mL | MIC90 ([10]; Pichia kudriavzevii, read-out: MIC90): 0.06 µg/mL | Cumulative % of isolates inhibited at MIC 8 μg/mL [11]: (31.6) % | Cumulative % of isolates inhibited at MIC >8 μg/mL [11]: (100.0) % | Number of isolates inhibited at MIC 8 μg/mL [11]: 6 | Number of isolates inhibited at MIC >8 μg/mL [11]: 13 | MIC50 ([11]; Cryptococcus neoformans, read-out: MIC50): 8 µg/mL | MIC90 ([11]; Cryptococcus neoformans, read-out: MIC90): 8 µg/mL | reduction in vaginal CFU compared with no treatment control ([12]; a week later, 8 days after treatment end (day 12)): > 3 log-fold | reduction in vaginal CFU compared with no treatment control ([12]; one day after treatment end (day 5)): 3.8 log-fold | time at which cidality (≥3-log reduction in CFU) was achieved [13]: < 24 h | reduction in fungal counts ([14]; 3, 10, and 30 mg/kg IP once, 48 and 72 hr time points): two log reduction | antimicrobial effect versus vehicle (one-way ANOVA, Dunnett's test) ([14]; 48 and 72 hr after infection, Compound 1 3, 10, 30 mg/kg IP, amphotericin B 1 and 3 mg/kg IV, fluconazole 20 mg/kg PO): Significant antimicrobial effects | IC50 ([15]; DPL50, WT): 0.00257 µg/mL | GS activity after treatment with a high dose ([15]; F659del mutant GS, 10,000 ng/mL): did not exhibit significant reductions in activity | MIC ([16]; ATCC90028, ATCC 90028, Fks1p WT, Fks2p WT): < 0.03 µg/mL | MIC ([16]; ATCC90028, DPL22, Fks1p S645P/S): 0.5 µg/mL | MIC ([17]; NRRLY477): 0.25 µg/mL | MIC ([17]; NRRLY477, 24 h, read-out: Broth MIC): 0.03 µg/mL | % of ER isolates with an MIC of ≤0.5 mg/L ([18]; C. albicans ER isolates): 60% | MIC median (range) ([18]; ER (10 isolates)): 0.50 (0.06-2) mg/L | MIC median (range) ([18]; WT (10 isolates)): <0.03 (<0.03)^ mg/L | MIC median (range) ([19]; ER (1 isolate)): 0.03 µg/mL | MIC median (range) ([19]; WT (1 isolate)): 0.03 µg/mL

— patent publication US20180256673A1, “METHODS FOR TREATING FUNGAL INFECTIONS” (priority 2015, published 2018)
